In assay [1] the target is T1, EGFR (WT) (Homo sapiens, UniProt P00533).
T1 construct: purchased Invitrogen PV3872
As to the kind of experiment: Omnia continuous-read kinase assay, EGFR (WT). Format: biochemical. The settings on record: read-out: EGFR inhibtion. In short, it runs like this:
(§1)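 Enzyme pre-incubated 30 min at 27 °C with compound, then ATP/Y12-Sox peptide added; fluorescence (ex360/em485) read continuously 60 min in 20 mM Tris pH 7.5, 5 mM MgCl2, 0.2 mM DTT. WT: 5 nM enzyme, […]; T790M/L858R: 3 nM enzyme, […]. IC50 from initial velocities, variable-slope fit.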

Assay [2] addresses T2, EGFR (T790M/L858R) (Homo sapiens, UniProt P00533, L858R/T790M).
T2 construct: purchased BPS Bioscience 40350
Put plainly: Omnia continuous-read kinase assay, EGFR (T790M/L858R). In kind it is biochemical. The settings on record: read-out: EGFR (T790M/L858R) inhibiton. The gist of the method: as §1

In assay [3] the target is ErbB1 (Homo sapiens, UniProt P00533). Put plainly: Z'-LYTE biochemical assay, ErbB1 kinase inhibition. The conditions noted are these: for inhibition at 0.01 µM: @ 10 nM; for inhibition at 0.1 µM: @ 100 nM. The gist of the method:
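Fluorescence-based coupled-enzyme Z′-LYTE format: kinase phosphorylation of a peptide substrate is read by differential protease cleavage of phosphorylated versus non-phosphorylated peptide.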

The target of assay [4] is ErbB2 (Homo sapiens, UniProt P04626). As to the kind of experiment: Z'-LYTE biochemical assay, ErbB2 kinase inhibition. The conditions noted are these: for inhibition at 0.1 µM: @ 100 nM. The protocol:
(§2) Compounds of the present invention were assayed as inhibitors of one or more of ErbB1, ErbB2, and/or ErbB4 in a manner substantially similar to the method described by Invitrogen Corp (Invitrogen Corporation, 1600 Faraday Avenue, Carlsbad, Calif., CA; http://www.invitrogen.com/downloads/Z-LYTE_Brochure—1205.pdf) using the Z′-LYTE™ biochemical assay procedure or similar biochemical assay. The Z′-LYTE™ biochemical assay employs a fluorescence-based, coupled-enzyme format and is based on the differential sensitivity of phosphorylated and non-phosphorylated peptides to proteolytic cleavage.

Assay [5] addresses ErbB4 (Homo sapiens, UniProt Q15303). Put plainly: Z'-LYTE biochemical assay, ErbB4 kinase inhibition. The protocol: as §2
Assay [6] addresses BTK (Homo sapiens, UniProt Q06187). Put plainly: Omnia assay for potency against BTK. Format: biochemical. The settings on record: read-out: BTK Inhibition. In short, it runs like this: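 BTK (5 nM) was pre-incubated 30 min at 27° C with serially diluted compounds in Tris pH 7.5/MgCl2 buffer, then started with […] and Y5-Sox peptide 10 mM (ATP KMapp ~36 mM). Fluorescence (ex360/em485) was read continuously over 60 min. IC50 came from initial velocities using a variable-slope fit.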

In assay [7] the target is T3, JAK3 (Homo sapiens, UniProt P52333).
T3 sequence (P52333 1-1124): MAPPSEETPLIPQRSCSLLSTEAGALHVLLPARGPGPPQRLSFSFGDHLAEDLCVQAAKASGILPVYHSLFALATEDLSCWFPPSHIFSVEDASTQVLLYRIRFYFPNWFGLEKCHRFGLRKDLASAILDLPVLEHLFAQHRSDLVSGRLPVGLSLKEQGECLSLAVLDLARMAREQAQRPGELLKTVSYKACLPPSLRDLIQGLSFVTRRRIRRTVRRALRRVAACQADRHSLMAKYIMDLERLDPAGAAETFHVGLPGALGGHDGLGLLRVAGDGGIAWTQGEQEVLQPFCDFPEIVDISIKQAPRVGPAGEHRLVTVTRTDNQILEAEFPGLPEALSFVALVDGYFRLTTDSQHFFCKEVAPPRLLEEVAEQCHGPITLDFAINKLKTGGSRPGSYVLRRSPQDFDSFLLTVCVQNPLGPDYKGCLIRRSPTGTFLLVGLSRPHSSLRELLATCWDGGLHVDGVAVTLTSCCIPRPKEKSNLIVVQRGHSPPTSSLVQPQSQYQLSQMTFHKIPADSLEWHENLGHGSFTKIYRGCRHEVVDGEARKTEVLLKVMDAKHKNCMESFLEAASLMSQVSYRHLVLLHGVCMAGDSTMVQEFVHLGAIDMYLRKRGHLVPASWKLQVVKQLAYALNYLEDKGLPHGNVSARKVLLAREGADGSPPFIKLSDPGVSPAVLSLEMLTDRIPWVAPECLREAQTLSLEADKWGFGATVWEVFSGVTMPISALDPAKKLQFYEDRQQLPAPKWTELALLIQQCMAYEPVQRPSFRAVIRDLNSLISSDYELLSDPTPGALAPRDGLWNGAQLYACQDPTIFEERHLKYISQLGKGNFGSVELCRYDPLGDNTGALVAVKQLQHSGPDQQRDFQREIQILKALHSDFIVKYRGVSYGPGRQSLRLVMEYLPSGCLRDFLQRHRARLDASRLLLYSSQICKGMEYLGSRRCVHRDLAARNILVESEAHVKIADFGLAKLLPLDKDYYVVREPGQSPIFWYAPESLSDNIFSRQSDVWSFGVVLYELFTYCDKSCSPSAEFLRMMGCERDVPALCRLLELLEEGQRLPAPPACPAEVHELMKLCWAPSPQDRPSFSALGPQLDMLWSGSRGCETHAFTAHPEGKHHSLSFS
As to the kind of experiment: Omnia assay for potency against JAK3. In kind it is biochemical. The conditions noted are these: read-out: JAK3 Inhibition. The gist of the method: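 Continuous-read Omnia kinase assay with 5 nM JAK3, 5 μM ATP (near apparent Km) and 5 μM Y12-Sox peptide in Tris pH 7.5/MgCl2 buffer; enzyme pre-incubated with compound 30 min at 27 °C. Fluorescence (ex360/em485) read over 60 min; initial velocities fitted against inhibitor concentration to give IC50.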

Assay [8] has as its system BTK signaling in Ramos cells. Put plainly: BTK Ramos cellular assay (PLCγ2 phosphorylation). The conditions noted are these: Homo sapiens; Ramos cells, PLCγ2 phosphorylation; read-out: BTK Inhibition. Format: cell-based. The protocol: Compounds 1-13 and (I-52) were assayed in Ramos human Burkitt lymphoma cells. Ramos cells were grown in suspension in T225 flasks, spun down, resuspended in 50 mls serum-free media and incubated for 1 hour. Compound was added to Ramos cells in serum free media to a final concentration of 1, 0.1, 0.01, or 0.001 μM. Ramos cells were incubated with compound for 1 hour, washed again and resuspended in 100 ul serum-free media. Cells were then stimulated with 1 μg of goat F(ab′)2 Anti-Human IgM and incubated on ice for 10 minutes to activate B cell receptor signaling pathways. After 10 minutes, the cells were washed once with PBS and then lysed on ice with Invitrogen Cell Extraction buffer. 16 μg total protein from lysates was loaded on gels and blots were probed for phosphorylation of the BTK substrate PLCγ2. […] Additional dose response inhibition of BTK signaling with I-13 is depicted in FIG. 9.

The text below walks through data of patent publication US9296704B2, “Substituted pyrimidines as protein kinase inhibitors” (CELGENE AVILOMICS RESEARCH, INC., priority 2007, dated 2016).

Chain of ErbB4 (Q15303 26-1308): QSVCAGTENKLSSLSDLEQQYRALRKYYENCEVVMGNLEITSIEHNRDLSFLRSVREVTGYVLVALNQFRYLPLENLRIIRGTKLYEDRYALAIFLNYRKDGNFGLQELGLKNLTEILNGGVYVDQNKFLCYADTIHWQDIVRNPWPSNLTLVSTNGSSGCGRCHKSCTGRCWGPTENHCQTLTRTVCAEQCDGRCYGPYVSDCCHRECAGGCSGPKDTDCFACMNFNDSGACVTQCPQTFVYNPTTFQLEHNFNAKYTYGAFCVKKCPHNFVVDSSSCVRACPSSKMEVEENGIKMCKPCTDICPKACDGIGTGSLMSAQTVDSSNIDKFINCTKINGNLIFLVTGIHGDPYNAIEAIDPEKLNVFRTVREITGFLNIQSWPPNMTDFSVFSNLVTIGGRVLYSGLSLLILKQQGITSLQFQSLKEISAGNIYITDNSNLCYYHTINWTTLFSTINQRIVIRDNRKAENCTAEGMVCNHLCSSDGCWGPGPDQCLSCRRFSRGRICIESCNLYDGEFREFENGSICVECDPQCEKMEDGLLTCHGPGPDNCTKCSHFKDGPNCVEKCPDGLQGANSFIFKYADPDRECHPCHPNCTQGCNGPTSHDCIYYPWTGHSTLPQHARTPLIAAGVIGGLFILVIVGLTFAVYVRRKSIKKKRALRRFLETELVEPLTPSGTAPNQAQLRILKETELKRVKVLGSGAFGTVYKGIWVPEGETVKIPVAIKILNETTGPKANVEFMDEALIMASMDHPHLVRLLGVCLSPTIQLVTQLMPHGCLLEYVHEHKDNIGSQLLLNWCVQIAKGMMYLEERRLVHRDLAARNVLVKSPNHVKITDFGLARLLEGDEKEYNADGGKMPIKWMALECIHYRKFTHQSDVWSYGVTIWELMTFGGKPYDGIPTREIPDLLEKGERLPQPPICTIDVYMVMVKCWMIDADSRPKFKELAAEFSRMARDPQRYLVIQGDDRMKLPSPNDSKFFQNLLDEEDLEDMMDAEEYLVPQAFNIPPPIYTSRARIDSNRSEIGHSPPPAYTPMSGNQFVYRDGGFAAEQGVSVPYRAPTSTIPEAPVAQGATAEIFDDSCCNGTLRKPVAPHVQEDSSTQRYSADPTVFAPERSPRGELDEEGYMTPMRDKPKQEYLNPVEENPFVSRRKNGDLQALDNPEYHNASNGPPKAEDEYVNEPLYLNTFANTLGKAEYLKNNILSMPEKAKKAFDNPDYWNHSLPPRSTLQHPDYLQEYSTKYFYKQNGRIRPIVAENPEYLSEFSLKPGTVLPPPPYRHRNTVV
Chain of ErbB2 (P04626 23-1255): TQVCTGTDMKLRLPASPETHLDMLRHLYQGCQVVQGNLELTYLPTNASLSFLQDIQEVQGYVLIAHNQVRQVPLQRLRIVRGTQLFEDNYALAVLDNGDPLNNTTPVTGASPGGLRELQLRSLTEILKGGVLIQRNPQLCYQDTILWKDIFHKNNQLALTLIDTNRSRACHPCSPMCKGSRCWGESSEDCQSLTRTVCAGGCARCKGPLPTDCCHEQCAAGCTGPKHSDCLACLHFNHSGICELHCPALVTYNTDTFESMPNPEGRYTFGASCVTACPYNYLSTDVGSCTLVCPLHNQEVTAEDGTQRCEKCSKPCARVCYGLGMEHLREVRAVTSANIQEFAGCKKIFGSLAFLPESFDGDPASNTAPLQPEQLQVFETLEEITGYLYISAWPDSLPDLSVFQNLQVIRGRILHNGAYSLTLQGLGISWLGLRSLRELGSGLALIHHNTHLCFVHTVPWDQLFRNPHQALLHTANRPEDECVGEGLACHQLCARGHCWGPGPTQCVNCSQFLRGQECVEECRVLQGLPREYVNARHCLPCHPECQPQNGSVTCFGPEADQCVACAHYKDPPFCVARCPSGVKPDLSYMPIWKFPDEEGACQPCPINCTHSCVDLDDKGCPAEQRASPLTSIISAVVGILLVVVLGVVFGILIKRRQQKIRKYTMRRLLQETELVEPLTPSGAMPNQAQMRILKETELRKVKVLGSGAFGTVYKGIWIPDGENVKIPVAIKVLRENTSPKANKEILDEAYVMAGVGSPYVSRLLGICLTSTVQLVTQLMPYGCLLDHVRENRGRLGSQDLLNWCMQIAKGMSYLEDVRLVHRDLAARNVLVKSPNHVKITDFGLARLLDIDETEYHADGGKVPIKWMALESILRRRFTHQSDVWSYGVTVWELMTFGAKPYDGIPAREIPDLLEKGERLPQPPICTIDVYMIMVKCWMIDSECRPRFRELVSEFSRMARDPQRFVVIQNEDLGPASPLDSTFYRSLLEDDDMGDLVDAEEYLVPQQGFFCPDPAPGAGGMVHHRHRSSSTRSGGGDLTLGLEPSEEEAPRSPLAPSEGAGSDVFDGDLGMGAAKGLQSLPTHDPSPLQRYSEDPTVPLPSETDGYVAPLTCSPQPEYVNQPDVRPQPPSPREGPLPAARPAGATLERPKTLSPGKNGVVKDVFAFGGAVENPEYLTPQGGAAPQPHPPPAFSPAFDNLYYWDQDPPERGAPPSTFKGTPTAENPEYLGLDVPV
T2 sequence (P00533 25-1210 T790M/L858R): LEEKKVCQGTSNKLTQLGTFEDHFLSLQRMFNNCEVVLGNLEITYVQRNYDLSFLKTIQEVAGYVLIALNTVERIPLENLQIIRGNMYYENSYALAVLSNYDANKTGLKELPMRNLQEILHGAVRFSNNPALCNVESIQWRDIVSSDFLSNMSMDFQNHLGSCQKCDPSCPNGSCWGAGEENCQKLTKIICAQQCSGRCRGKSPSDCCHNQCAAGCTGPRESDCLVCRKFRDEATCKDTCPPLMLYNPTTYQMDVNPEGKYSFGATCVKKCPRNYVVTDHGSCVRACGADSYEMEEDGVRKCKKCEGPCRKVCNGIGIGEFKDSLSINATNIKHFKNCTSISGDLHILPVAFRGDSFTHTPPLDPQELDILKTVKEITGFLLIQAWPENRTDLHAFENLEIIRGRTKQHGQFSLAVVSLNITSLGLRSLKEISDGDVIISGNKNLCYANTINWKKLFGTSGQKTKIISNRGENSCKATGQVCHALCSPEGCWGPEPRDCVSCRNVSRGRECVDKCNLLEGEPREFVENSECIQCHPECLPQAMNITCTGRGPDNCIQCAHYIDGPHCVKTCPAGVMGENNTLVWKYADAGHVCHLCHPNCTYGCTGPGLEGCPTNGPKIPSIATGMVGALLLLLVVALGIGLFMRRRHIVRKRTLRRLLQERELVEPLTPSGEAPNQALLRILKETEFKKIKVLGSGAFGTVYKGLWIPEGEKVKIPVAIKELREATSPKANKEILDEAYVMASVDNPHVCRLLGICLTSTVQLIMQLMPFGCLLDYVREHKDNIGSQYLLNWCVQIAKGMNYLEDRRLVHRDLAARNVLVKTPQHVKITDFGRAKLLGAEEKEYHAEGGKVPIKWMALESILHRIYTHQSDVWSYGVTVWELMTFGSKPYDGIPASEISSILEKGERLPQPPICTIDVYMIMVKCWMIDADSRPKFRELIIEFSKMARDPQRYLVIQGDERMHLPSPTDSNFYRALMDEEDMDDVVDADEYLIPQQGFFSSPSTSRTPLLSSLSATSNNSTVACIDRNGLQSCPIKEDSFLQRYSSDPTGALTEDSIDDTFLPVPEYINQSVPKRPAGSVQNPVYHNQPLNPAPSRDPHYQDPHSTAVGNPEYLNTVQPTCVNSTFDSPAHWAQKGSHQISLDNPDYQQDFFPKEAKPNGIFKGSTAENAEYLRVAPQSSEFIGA
T1 sequence (P00533 25-1210): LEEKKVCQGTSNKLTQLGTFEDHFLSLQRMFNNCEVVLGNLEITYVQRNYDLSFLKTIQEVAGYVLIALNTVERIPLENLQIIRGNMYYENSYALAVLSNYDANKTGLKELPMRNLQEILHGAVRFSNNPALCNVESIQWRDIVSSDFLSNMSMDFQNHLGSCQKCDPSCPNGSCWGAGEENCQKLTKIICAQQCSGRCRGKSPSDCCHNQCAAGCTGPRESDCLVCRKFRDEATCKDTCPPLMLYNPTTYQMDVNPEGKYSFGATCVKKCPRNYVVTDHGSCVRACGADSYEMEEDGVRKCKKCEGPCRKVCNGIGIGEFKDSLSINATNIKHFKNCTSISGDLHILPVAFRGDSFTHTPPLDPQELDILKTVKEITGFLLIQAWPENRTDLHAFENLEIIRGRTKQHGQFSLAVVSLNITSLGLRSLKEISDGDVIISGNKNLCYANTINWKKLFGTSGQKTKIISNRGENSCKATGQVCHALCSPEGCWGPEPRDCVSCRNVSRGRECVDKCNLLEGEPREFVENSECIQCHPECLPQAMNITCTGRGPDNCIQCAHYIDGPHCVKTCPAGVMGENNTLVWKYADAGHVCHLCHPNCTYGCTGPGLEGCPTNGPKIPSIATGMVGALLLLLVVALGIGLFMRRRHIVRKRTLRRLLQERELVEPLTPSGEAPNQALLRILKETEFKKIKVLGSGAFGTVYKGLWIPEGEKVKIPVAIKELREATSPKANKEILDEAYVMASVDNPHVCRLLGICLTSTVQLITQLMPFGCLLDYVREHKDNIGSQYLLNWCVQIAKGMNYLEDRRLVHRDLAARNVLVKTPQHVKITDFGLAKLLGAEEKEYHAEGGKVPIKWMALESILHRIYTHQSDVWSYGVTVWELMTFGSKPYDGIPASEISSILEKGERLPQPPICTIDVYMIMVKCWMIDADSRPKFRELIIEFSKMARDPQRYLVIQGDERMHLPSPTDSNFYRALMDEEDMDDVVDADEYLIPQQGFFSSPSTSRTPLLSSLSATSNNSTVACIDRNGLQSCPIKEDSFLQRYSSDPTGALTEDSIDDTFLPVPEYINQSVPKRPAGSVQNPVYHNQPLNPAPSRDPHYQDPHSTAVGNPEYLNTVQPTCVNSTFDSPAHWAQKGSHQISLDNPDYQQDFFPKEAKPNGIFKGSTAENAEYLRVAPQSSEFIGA

The term inhibition denotes the change of the read-out against control, counted positive when it falls. A low value points to little suppression. As to `C=CC(=O)Nc1cccc(Nc2cc(Nc3ccc(F)c(Cl)c3)ncn2)c1` [I-2, N-{3-[6-(3-chloro-4-fluorophenylamino)-pyrimidin-4-ylamino]phenyl}-2-propenamide], the IC50 in assay [1] was at most 10 nM; in assay [2] it was at most 10 nM; in assay [6], 10 to 100 nM; in assay [7], at most 10 nM. Moreover, the inhibition at 0.01 µM in assay [3] was 75%. The results for the inhibition at 0.1 µM in assay [3] and in assay [4] were 98% and 39%, respectively. In addition, the figures for the inhibition at 1 µM in assay [4] and in assay [5] were 96% and 75%, respectively.
With `C=CS(=O)(=O)Nc1cccc(Nc2cc(Nc3ccc(F)c(Cl)c3)ncn2)c1` [I-3, N-{3-[6-(3-chloro-4-fluorophenylamino)-pyrimidin-4-ylamino]phenyl}-ethenesulfonamide], the IC50 is at most 10 nM in assay [1], at most 10 nM in assay [2], 10 to 100 nM in assay [6] and at most 10 nM in assay [7]. For the same molecule, testing at 0.01 µM in assay [3] gave an inhibition of 56%. For the same molecule, the inhibition at 0.1 µM in assay [3] is 96%. Besides, the figures for the inhibition at 1 µM in assay [4] and in assay [5] were 89% and 95%, respectively.
For `C=CC(=O)Nc1cccc(Nc2cc(Nc3cccc(C)c3)ncn2)c1` [I-4, N-{3-[6-(3-methylphenylamino)-pyrimidin-4-ylamino]phenyl}-2-propenamide], the IC50 in assay [1] is at most 10 nM; in assay [2], 10 to 100 nM; in assay [6], at most 10 nM; in assay [7], at most 10 nM. Also, testing at 0.01 µM in assay [3] gave an inhibition of 100%. Further, the inhibition at 1 µM in assay [4] turned out to be 86%; in assay [5], 78%.
For `C=CS(=O)(=O)Nc1cccc(Nc2cc(Nc3cccc(C)c3)ncn2)c1` [I-5, N-{3-[6-(3-methylphenylamino)-pyrimidin-4-ylamino]phenyl}-ethenesulfonamide], the IC50 in assay [1] was at most 10 nM; in assay [2], at most 10 nM; in assay [6] it was at most 10 nM; in assay [8], 100 to 1000 nM; in assay [7], at most 10 nM. Moreover, the inhibition at 0.01 µM in assay [3] came to 100%. Also, the inhibition at 1 µM in assay [4] is 86%; in assay [5] it was 95%.
In the case of `C=CC(=O)Nc1cccc(Nc2cc(Nc3ccc(OCc4cccc(F)c4)c(Cl)c3)ncn2)c1` [I-6, N-{3-[6-(3-chloro-4-(3-fluorophenyl)methoxyphenylamino)-pyrimidin-4-ylamino]phenyl}-2-propenamide], the IC50 lay within 10 to 100 nM in assay [1], 10 to 100 nM in assay [2], 100 to 1000 nM in assay [6] and 1000 to 10000 nM in assay [7]. In assay [3], testing at 0.01 µM gave an inhibition of 49%. Moreover, at 0.1 µM the inhibition in assay [3] was 100%. For the same molecule, the inhibition at 1 µM in assay [4] worked out at 84%; in assay [5] it was 97%.
As for `C=CS(=O)(=O)Nc1cccc(Nc2cc(Nc3ccc(OCc4cccc(F)c4)c(Cl)c3)ncn2)c1` [I-7, N-{3-[6-(3-chloro-4-(3-fluorophenyl)methoxy-phenylamino)-pyrimidin-4-ylamino]phenyl}-ethenesulfonamide], the IC50 was at most 10 nM in assay [1], 10 to 100 nM in assay [2], 10 to 100 nM in assay [6] and 100 to 1000 nM in assay [7]. For the same molecule, in assay [3], 0.01 µM produced 53% inhibition. Further, the inhibition at 0.1 µM in assay [3] worked out at 100%. Besides, the values for the inhibition at 1 µM in assay [4] and in assay [5] were 89% and 100%, respectively.
As to `C=CC(=O)Nc1cccc(Nc2cc(Nc3ccc(OCc4ccccn4)c(Cl)c3)ncn2)c1` [I-16, N-(3-(6-(3-chloro-4-(pyridin-2-ylmethoxy)phenylamino)pyrimidin-4-ylamino)phenyl)-2-propenamide], the IC50 in assay [1] was at most 10 nM; in assay [2] it was 10 to 100 nM; in assay [6], 10 to 100 nM; in assay [7], 10 to 100 nM. Further, 1 µM produced 98% inhibition in assay [3]. Further, the inhibition at 0.01 µM in assay [4] (@ 10 nM) was 24%; in assay [5] (@ 10 nM), 26%. Further, the figures for the inhibition at 0.1 µM in assay [4] and in assay [5] (@ 100 nM) were 87% and 93%, respectively.
In the case of `Cc1cccc(Nc2cc(Nc3cccc(NC(=O)/C=C/CN(C)C)c3)ncn2)c1` [I-17, (E)-N-{3-[6-(3-methylphenylamino)-pyrimidin-4-ylamino]phenyl}-4-dimethylamino-2-butenamide], the IC50 was at most 10 nM in assay [1]; 10 to 100 nM in assay [2]; at most 10 nM in assay [6]; at least 1000 nM in assay [8]; 10 to 100 nM in assay [7]. The inhibition at 1 µM in assay [3] was 95%; in assay [4] it was 89%; in assay [5], 94%.
For the molecule `CN(C)C/C=C/C(=O)Nc1cccc(Nc2cc(Nc3ccc(OCc4ccccn4)c(Cl)c3)ncn2)c1` [I-19, (E)-N-(3-(6-(3-chloro-4-(pyridin-2-ylmethoxy)phenylamino)-pyrmidin-4-ylamino)phenyl)-4-(dimethylamino)but-2-enamide], the IC50 in assay [1] was at most 10 nM; in assay [2], at most 10 nM; in assay [6], 10 to 100 nM; in assay [7] it was 100 to 1000 nM. The inhibition at 1 µM stood at 96% in assay [3], 98% in assay [4] and 97% in assay [5].
